Values quoted from earlier work in patent US20190250088A1, “Methods and Apparatus for Predicting and Confirming Drug-Induced Thrombocytopenia Through Particle Detection with Dynamic Light Scattering” (LightIntegra Technology Inc., priority 2018, published 2019).

Conditions: patients recently exposed to heparin; background statement

low molecular weight heparin [low molecular weight heparin (LMWH)]
HIT occurs in patients receiving the drug (incidence of heparin-induced thrombocytopenia): < 1%

unfractionated heparin [unfractionated heparin (UFH)]
HIT occurs in patients receiving the drug (incidence of heparin-induced thrombocytopenia): up to 5%
